Reference: US20090098066A1, “Substituted bicyclo [2.2.2] oct/5-ene compounds and their use as cooling agents” (priority 2005, published 2009)

Key:
panelists = assay: Cooling intensity: panelists taste aqueous solutions versus menthol at 2 ppm; format: in vivo; settings: aqueous solution with cooling intensity similar or slightly higher than a solution of menthol at 2 ppm
panelist [1] = assay: Application in chewing gum, gum stick chewed by a panelist; format: in vivo; settings: chewing gum with 0.10 g compound in about 100 g gum, with peppermint oil; chewed for 15 minutes
Method: All the ingredients are mixed in the pre-warmed gum base. The mixture is spread in thick films, cooled down and cut in sticks. A gum stick is chewed by a panelist for 15 minutes. […] No off-note was observed.

panelist [2] = assay: Application in beverage (clear lemon/lime soda), tasted by a panelist; format: in vivo; settings: 1.2 mL of a 0.5% ethanolic solution in a 355 mL can of clear lemon/lime soda
Method: 1.2 mL of a 0.5% ethanolic solution of 1-isopropyl-4-methyl-bicyclo[2.2.2]oct-5-ene-2,3-dicarbinol is added in a 355 mL (12 fl oz.) can of clear lemon/lime soda.

panelist [3] = settings: general statement, not tested here; cited from earlier work

Row | Molecule | Concentration (panelists) [ppm] | cooling sensation (panelist [1]) | cooling sensation (panelist [2]) | throat burning (panelist [2]) | throat burning (stated as known characteristic) (panelist [3])
1 | 1-Isopropyl-4-methyl-bicyclo[2.2.2]oct-5-ene-2-carboxylic acid and 1-isopropyl-4-methyl-bicyclo[2.2.2]oct-5-ene-3-carboxylic acid [Example 2] | 2 |  |  |  | 
2 | CC(C)C12C=CC(C)(CC1)C(CO)C2CO (stereo not drawn) [Example 1, 1-Isopropyl-4-methyl-bicyclo[2.2.2]oct-5-ene-2,3-dicarbinol] | 2 | immediate cooling sensation is felt in all areas of the mouth | immediate cooling sensation in the mouth | none of the throat burning | 
3 | CCNC(=O)C1CC2(C)C=CC1(C(C)C)CC2 (stereo not drawn) [Example 4, N-ethyl 1-Isopropyl-4-methyl-bicyclo[2.2.2]oct-5-ene-2-carboxamide] | 3 |  |  |  | 
4 | CC1=CC2C(O)CC1CC2C(C)C (stereo not drawn) [Example 6, 7-isopropyl-5-methyl-bicyclo[2.2.2]oct-5-en-2-ol] | 5 |  |  |  | 
5 | CCNC(=O)C1CC(C)CCC1C(C)C (stereo not drawn) [WS-3, N-ethyl p-menthanecarboxamide, reference compound] | 1.5 |  |  |  | throat burning that is characteristic
